Test results taken from patent US7943639B2, “Compounds” (Proximagen Limited, priority 2002, dated 2011).
Where a name gives a salt, the structure may show the parent alone. Read-outs that look alike come from different tables or passages of the source.

Columns and labels:
human 5-HT6 receptor = target: T1, human 5-HT6 receptor (Homo sapiens, UniProt P50406); assay: 5-HT6 binding assay ([3H]-LSD, SPA, membranes of transfected HEK293 cells)
T1 construct: expressed in transfected cells; host or cells: HEK-293 cells under G-418 selection; membranes were prepared from them
T1 sequence (P50406 whole entry): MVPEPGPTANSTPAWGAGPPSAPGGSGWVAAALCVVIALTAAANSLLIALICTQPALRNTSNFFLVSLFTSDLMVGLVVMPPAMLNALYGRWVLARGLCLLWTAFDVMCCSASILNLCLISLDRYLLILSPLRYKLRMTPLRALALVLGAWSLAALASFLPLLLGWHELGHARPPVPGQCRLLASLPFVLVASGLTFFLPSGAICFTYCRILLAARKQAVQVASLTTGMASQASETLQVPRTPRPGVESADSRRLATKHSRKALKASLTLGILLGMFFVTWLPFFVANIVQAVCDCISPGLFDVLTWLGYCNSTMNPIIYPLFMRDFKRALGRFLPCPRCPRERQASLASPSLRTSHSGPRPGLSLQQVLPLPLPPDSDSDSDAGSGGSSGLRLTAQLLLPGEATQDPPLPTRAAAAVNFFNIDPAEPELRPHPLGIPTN

Ob/ob mice = assay: In vivo assay of reduction of food intake; parameters: species or system mouse; conditions: infusion 50 mg/kg/d, measured at steady state
Experimental: (c) In Vivo Assay of Reduction of Food Intake
Obese (ob/ob) mouse is selected as the primary animal model for screening as this mutant mouse consumes high amounts of food resulting in a high signal to noise ratio. To further substantiate and compare efficacy data, the effect of the compounds on food consumption is also studied in wild type (C57BL/6J) mice. The amount of food consumed during 15 hours of infusion of compounds is recorded.
Male mice (obese C57BL/6JBom-Lep^ob and lean wild-type C57B1/6JBom; Bomholtsgaard, Denmark) 8-9 weeks with an average body weight of 50 g (obese) and 25 g (lean) are used in all the studies. The animals are housed singly in cages at 23±1° C., 40-60% humidity and have free access to water and standard laboratory chow. The 12/12-h light/dark cycle is set to lights off at 5 p.m. The animals are conditioned for at least one week before start of study.
The test compounds are dissolved in solvents suitable for each specific compound such as cyclodextrin, cyclodextrin/methane sulfonic acid, polyethylene glycol/methane sulfonic acid, saline. Fresh solutions are made for each study. Doses of 30, 50 and 100 mg kg^−1day^−1 are used. The purity of the test compounds is of analytical grade.
The animals are weighed at the start of the study and randomized based on body weight. Alzet osmotic minipumps (Model 2001D; infusion rate 8 μl/h) are used and loaded essentially as recommended by the Alzet technical information manual (Alza Scientific Products, 1997; Theeuwes, F. and Yam, S. I. Ann. Biomed. Eng. 4(4). 343-353, 1976). Continuous subcutaneous infusion with 24 hours duration is used. […]
The weight of the food pellets are measured at 5 p.m. and at 8 p.m. for two days before (baseline) and one day after the implantation of the osmotic minipumps. […]
Food consumption for 15 hours is measured for the three consecutive days and the percentage of basal level values is derived for each animal from the day before and after treatment. The values are expressed as mean±SD and ±SEM from eight animals per dose group. […]

[1] = Plasma drug concentration at steady state in the food intake study; format: in vivo; conditions: mouse, subcutaneous, 50 mg/kg/day, Ob/ob mice, single administration 50 mg/kg/d, read-out: Css, u
Experimental: The animals are weighed at the start of the study and randomized based on body weight. Alzet osmotic minipumps (Model 2001D; infusion rate 8 μl/h) are used and loaded essentially as recommended by the Alzet technical information manual (Alza Scientific Products, 1997; Theeuwes, F. and Yam, S. I. Ann. Biomed. Eng. 4(4). 343-353, 1976). Continuous subcutaneous infusion with 24 hours duration is used. The minipumps are either filled with different concentrations of test compounds dissolved in vehicle or with only vehicle solution and maintained in vehicle pre-warmed to 37° C. (approx. 1 h). The minipumps are implanted subcutaneously in the neck/back region under short acting anesthesia (metofane/enflurane). This surgical procedure lasts approximately 5 min. It takes about 3 h to reach steady state delivery of the compound.
The weight of the food pellets are measured at 5 p.m. and at 8 p.m. for two days before (baseline) and one day after the implantation of the osmotic minipumps. The weigh-in is performed with a computer assisted Mettler Toledo PR 5002 balance. Occasional spillage is corrected for. At the end of the study the animals are killed by neck dislocation and trunk blood sampled for later analysis of plasma drug concentrations.
The plasma sample proteins are precipitated with methanol, centrifuged and the supernatant is transferred to HPLC vials and injected into the liquid chromatography/mass spectrometric system. The mass spectrometer is set for electrospray positive ion mode and Multiple Reaction Monitoring. A linear regression analysis of the standards forced through the origin is used to calculate the concentrations of the unknown samples.

[2] = In vitro binding at the human 5-HT6 receptor, [3H]-LSD as labeled ligand, read-out: Ki (nM) human 5-HT6

Row | SMILES | Ki (human 5-HT6 receptor; [2]) | % FI reduction (Ob/ob mice) | concentration at 24 h [1] | further results
1 | Cl.O=S(=O)(c1ccccc1)c1ccc2nccc(N3CCNCC3)c2c1 [Example 1, 6-benzenesulfonyl-4-piperazin-1-yl-quinoline hydrochloride] | 10 nM | 12% | 440 nM | –
2 | NCCc1c[nH]c2ccc(O)cc12 [Example 5-HT, 5-hydroxytryptamine, reference compound] | – | – | – | Hill coefficient (human 5-HT6 receptor; inter assay variability over three experiments): 0.94 (SD 0.09)
3 | CC(C)(C)c1ccc(S(=O)(=O)c2ccc3nccc(N4CCNCC4)c3c2)cc1.Cl [Example 11, 6-[(4-tert-Butylphenyl)sulfonyl]-4-piperazin-1-ylquinoline hydrochloride] | 6.5 nM | 47.1% | 20 nM | –
4 | Cc1ccc(C)c(S(=O)(=O)c2ccc3ccnc(N4CCNCC4)c3c2)c1 [Example 20, 7-(2,5-Dimethyl-benzenesulfonyl)-1-piperazin-1-yl-isoquinoline hydrochloride] | 10.5 nM | – | – | –
5 | Cl.O=S(=O)(Nc1ccc(O[C@@H]2CCNC2)c2ccccc12)c1ccc(Cl)cc1 [Example 40, 4-Chloro-N-{4-[(3R)-pyrrolidin-3-yloxy]-1-naphthyl}benzenesulfonamide hydrochloride] | 7.5 nM | 44% | 200 nM | –
6 | CN1CCN(c2nccc3sc(S(=O)(=O)Nc4ccccc4)cc23)CC1 [Example 43, 4-(4-Methylpiperazin-1-yl)-N-phenylthieno[3,2-c]pyridine-2-sulfonamide hydrochloride] | 4.5 nM | – | – | –
7 | O=S(=O)(NCCc1cccs1)c1cc2c(N3CCNCC3)nccc2s1 [Example 68, 4-Piperazin-1-yl-thieno[3,2-c]pyridine-2-sulfonic acid (2-thiophen-2-yl-ethyl)-amide hydrochloride] | 13 nM | – | – | –
8 | O=S(=O)(c1cc2c(N3CCCNCC3)nccc2s1)c1cccc2ccccc12 [Example 85, 4-(1,4-Diazepan-1-yl)-2-[1-naphthylsulfonyl)thieno[3,2-c]pyridine hydrochloride] | 32 nM | – | – | –
9 | O=S(=O)(c1ccccc1)n1ccc2c(N3CCNCC3)nccc21 [Example 131, 1-(Phenylsulfonyl)-4-piperazin-1-yl-1H-pyrrolo[3,2-c]pyridine hydrochloride] | – | – | – | Ki (human 5-HT6 receptor): 5 nM
10 | CN1C[C@@H](NS(=O)(=O)N(C)C)C[C@@H]2c3cccc4c3c(cn4C)C[C@H]21 [mesulergide, reference compound] | – | – | – | Ki (human 5-HT6 receptor; 3 nM [3H] LSD, 5-HT: over all average against two different membrane preparations, read-out: Ki value, inhibition of [3H] LSD binding (reference compounds, rank order of potency)): 1970 nM
